Data taken from patent publication US20230390463A1, “TISSUE SCAFFOLDS” (JD BIOMEDICAL SOLUTIONS LTD., priority 2020, published 2023).
Read-outs that look alike come from different tables or passages of the source.

What was measured:
[1] = Hydrophilic-lipophilic balance (HLB); assay type: physicochemical; settings: experimentally determined required HLB range
Text: As understood herein, the term “hydrophilic-lipophilic balance (HLB)” describes the ratio between the size of the hydrophilic and lipophilic regions of a surfactant molecule. The empirically derived formula: […]
Was introduced for alkyl ethoxylates (Griffin W. C. J. Soc. Cosmet. Chem., 5 (1954), p. 249.) The HLB of more complex surfactant structures is found using a systematic approach based on chemical group assignments (Davies J. T., Rideal E. K. Interfacial Phenomena Academic Press, New York (1961), pp. 371-378):
HLB=7+Σ(Hydrophile group number)−Σ(lipophile group number)
A water-in-oil emulsion (w/o) has […]. An oil-in-water (o/w) emulsion has […]. The propensity for formation of a w/o or o/w emulsion is determined by the balance of hydrophobicity and hydrophilicity of the solutions in the mixture. This may be determined using the HLB scale. Oleic phase reagents are assigned an HLB number, determined experimentally, that allows for selection of an appropriate surfactant to cause emulsification with the aqueous phase. […] HLB as understood herein is a semi-quantitative measure of the relative molecular weights of the hydrophilic and lipophilic regions of a surfactant molecule assigned on a scale from 0.5 (extremely lipophilic) to 19.5 (extremely hydrophilic).

[2] = surfactant, cited from earlier work
[3] = Oil carrying capacity (oil fraction at lowest TSI); assay type: physicochemical; settings: decane / MES-NaCl buffer, 0.1% (v/v) surfactant, 37° C.
Text: The proposed system of determining the oil fraction at which optimum emulsion stability occurs, the ‘oil carrying capacity’ (OCC) of the surfactant, is intended as a tool for surfactant selection in a system where the desired oil fraction is known. Equally, it may be used to optimise oil fraction ‘carried’ in the emulsion when a particular surfactant is required. It is a practical tool to be used in conjunction with other metrics, such as HLB, but its simplicity and broad application make it versatile and easy to implement to formulation practice.
The oil fraction at the lowest TSI after 15 minutes was identified as the ‘oil carrying capacity’ (OCC) of that surfactant. Further oil/buffer/surfactant mixtures were prepared at 5% oil fractions either side of this minimum (i.e. an initial minimum of 70% oil fraction would be tested then at 65% and 75% oil fraction).

[4] = test system: h-tert human mesenchymal stem cells; test: Cyto-compatibility of scaffolds (CCK-8, contact and leachable assay); assay type: cell-based; settings: acute (24 h) and chronic (120 h) exposure; surfactant at 0.1% v/v in media
Description: Cylindrical samples were cut with an 8 mm biopsy punch (n=3) were cut from two scaffolds. […] At 24 h (acute response time) and 120 h (chronic response time), 300 μl DMEM/CCK-8 (10:1) was added and incubated for 4 hours at 37° C. before reading absorbance at 450 nm. Two scaffolds of the same composition (D3, D4) from different manufacturing batches (0.1% Tx-165 surfactant, 90% porous, 2:1 fibrin: PVA, 2% fibrinogen) were tested with triplicate samples from each. […] This material is known to be non-cytotoxic, verified with both in vitro and in vivo assays.

[5] = Turbiscan emulsion stability (TSI) of decane/buffer emulsions stabilised with surfactant; assay type: physicochemical; settings: 0.1% (v/v) surfactant, 15 mins after mixing
Text: Stability was herein reported using the Turbiscan™ stability index (TSI). This non-destructive, non-invasive technique gives the stability of the sample over its whole selected height as a function of transmitted and backscattered light compared to the same measurements at the previous timepoint. Kinetic stability is built up over sequential scans. The pattern of change across the height of the sample gives a ‘fingerprint’ characteristic of the mode of destabilisation. TSI is defined in equation 1: […]
where scani is the backscattering value at a given timepoint, scani-1 is the backscattering value from the previous timepoint, h is the height of the scan and H is the total sample height from the first to the last scan. TSI is the sum of the differences between sequential scans and thus represents the stability of the sample over a defined timeframe. TSI reduces with increasing stability.
Stock solutions of surfactants were prepared in 7 ml polystyrene bijou by dispersing 0.1% (v/v) surfactant in decane so that surfactant scaled with oil fraction. These stock solutions were shaken briefly to disperse the surfactants before adding the deionised water. 4 ml mixtures were prepared in triplicate for each surfactant at various oil fractions (50, 60, 70, 80, 90% v/v oil-surfactant). Each sample was vortexed for 1 minute using WhirliMixer™ (Fisherbrand) to homogenise immediately prior to stability measurements.
3 ml of the sample was pipetted into a borosilicate glass cuvette, taking care to maintain a clean meniscus, and analysed using Turbiscan™ LAB Analyser (Formulation, Toulouse, France) scanning every 30 seconds for a total of 15 minutes.
Turbiscan stability index (TSI) was plotted for each surfactant as a function of oil fraction in the emulsion preparation, HLB, or time. Lower TSI indicates less change in the transmitted light, or less change in particle size and position.
Stability was measured using the Turbiscan™ static multiple light scattering analyser and expressed using the Turbiscan stability index (TSI) which reflects the change in transmitted and backscattered light across the height of a sample over a period of time. A higher value of TSI reflects poorer stability; a lower value reflects greater stability. However, because TSI measures rate of change, emulsions which break instantly after mixing ceases can display low TSI values.

[6] = as above; assay type: physicochemical; settings: 0.1% (v/v) surfactant, 15 mins after mixing; remark: listed apart in the source

Compound: CCCCCCCCCC [decane]
- required HLB of the decane oil phase [1]: 10-13

Compound: C11-15 pareth-7 [Tergitol 15-S-7]
- HLB [2]: 12.1

Compound: C11-15 pareth-9 [Tergitol 15-S-9]
- HLB [2]: 13.3
- HLB ([2]; listed as Tergitol T-S-9): ~13

Compound: C11-15 pareth-15 [Tergitol 15-S-15]
- HLB [2]: 15.4

Compound: Ethylene oxide-propylene oxide copolymer mono(2-ethylhexyl) ether [Ecosurf EH-9]
- HLB [2]: 12.5

Compound: Nonylphenol ethoxylate [Tergitol NP-10]
- HLB [2]: 13.2

Compound: Octylphenol ethoxylate [Triton N-101 reduced]
- HLB [2]: 14.4

Compound: Octylphenol ethoxylate [Triton X-102]
- oil fraction at maximum stability (oil carrying capacity) [3]: 70%

Compound: Octylphenol ethoxylate [Triton X-165]
- cytotoxicity [4]: cytotoxic in itself

Compound: Polyethylene glycol 4-tert- octylphenyl ether [Triton X-45]
- HLB [2]: 9.8

Compound: Polyethylene glycol 4-tert-octylphenyl ether [Triton X-100 reduced]
- HLB [2]: 9.8

Compound: Polyethylene glycol tert- octylphenyl ether [Triton X-100]
- oil fraction at maximum stability (oil carrying capacity) [3]: 70%
- Turbiscan stability index (TSI) ([5]; 70% v/v decane, mixing speed 1000 rpm): 3.189
- Turbiscan stability index (TSI) ([5]; 70% v/v decane, mixing speed 2000 rpm): 2.758
- Turbiscan stability index (TSI) ([5]; 70% v/v decane, mixing speed 3000 rpm): 8.763
- Turbiscan stability index (TSI) ([5]; 70% v/v decane, mixing speed 4000 rpm): 3.637
- Turbiscan stability index (TSI) ([5]; 70% v/v decane, mixing speed 5000 rpm): 2.705
- Turbiscan stability index (TSI) ([5]; 80% v/v decane, mixing speed 1000 rpm): 2.483
- Turbiscan stability index (TSI) ([5]; 80% v/v decane, mixing speed 2000 rpm): 2.225
- Turbiscan stability index (TSI) ([5]; 80% v/v decane, mixing speed 3000 rpm): 2.493
- Turbiscan stability index (TSI) ([5]; 80% v/v decane, mixing speed 5000 rpm): 5.128
- HLB [2]: 13.4
- Turbiscan stability index (TSI) ([6]; 75% v/v decane, mixing speed 1000 rpm): 3.571
- Turbiscan stability index (TSI) ([6]; 75% v/v decane, mixing speed 2000 rpm): 2.601
- Turbiscan stability index (TSI) ([6]; 75% v/v decane, mixing speed 3000 rpm): 2.723
- Turbiscan stability index (TSI) ([6]; 75% v/v decane, mixing speed 4000 rpm): 3.213
- Turbiscan stability index (TSI) ([6]; 75% v/v decane, mixing speed 5000 rpm): 2.398
- Turbiscan stability index (TSI) ([6]; 80% v/v decane, mixing speed 4000 rpm): 9.886

Compound: Polyethylene glycol tert-octylphenyl ether [Triton X-114 reduced]
- HLB [2]: 13.4

Compound: Polyethylene glycol tert-octylphenyl ether [Triton X-114]
- oil fraction at maximum stability (oil carrying capacity) [3]: 70%
- HLB [2]: 12.3

Compound: Polyethylene glycol trimethylnonyl ether [Tergitol TMN-6]
- HLB [2]: 13.1

Compound: Polyethylene glycol trimethylnonyl ether [Tergitol TMN-10]
- HLB [2]: 14.4

Compound: Polyoxyethylene (40) isooctylphenyl ether [Triton X-405]
- oil fraction at maximum stability (oil carrying capacity) [3]: 70%
- HLB [2]: 17.6
